From ChEMBL document CHEMBL1151640, “Benzoxazolinone, 2,4-Dihydroxy-1,4-benzoxazin-3-one, and Its Glucoside from Acanthus mollis Seeds Inhibit Velvetleaf Germination and Growth” (1985)

Key:
[1] = system: Abutilon theophrasti; assay: Phytotoxicity against Abutilon theophrasti assessed as seed germination at 5 mM after 2 days relative to control; type: functional
[2] = system: Abutilon theophrasti; assay: Phytotoxicity against Abutilon theophrasti assessed as seed germination at 0.5 mM after 2 days relative to control; type: functional
[3] = system: Abutilon theophrasti; assay: Phytotoxicity against Abutilon theophrasti assessed as seed germination at 5 mM after 4 days relative to control; type: functional
[4] = system: Abutilon theophrasti; assay: Phytotoxicity against Abutilon theophrasti assessed as seed germination at 1 mM after 4 days relative to control; type: functional
[5] = system: Abutilon theophrasti; assay: Phytotoxicity against Abutilon theophrasti assessed as seed germination at 1 mM after 2 days relative to control; type: functional
[6] = system: Abutilon theophrasti; assay: Phytotoxicity against Abutilon theophrasti assessed as seed germination at 0.5 mM after 4 days relative to control; type: functional
[7] = system: Abutilon theophrasti; assay: Phytotoxicity against Abutilon theophrasti assessed as seed germination at 0.8 mM after 2 days relative to control; type: functional
[8] = system: Abutilon theophrasti; assay: Phytotoxicity against Abutilon theophrasti assessed as seed germination at 0.6 mM after 2 days relative to control; type: functional
[9] = system: Abutilon theophrasti; assay: Phytotoxicity against Abutilon theophrasti assessed as seed germination at 0.8 mM after 4 days relative to control; type: functional
[10] = system: Abutilon theophrasti; assay: Phytotoxicity against Abutilon theophrasti assessed as seed germination at 2 mM after 2 days relative to control; type: functional
[11] = system: Abutilon theophrasti; assay: Phytotoxicity against Abutilon theophrasti assessed as seed germination at 2 mM after 4 days relative to control; type: functional
[12] = system: Abutilon theophrasti; assay: Phytotoxicity against Abutilon theophrasti assessed as seed germination at 2 mM after 2 weeks; type: functional, organism-based
[13] = system: Abutilon theophrasti; assay: Phytotoxicity against Abutilon theophrasti assessed as seed germination at 0.6 mM after 4 days relative to control; type: functional

SMILES | Activity [1] | Activity [2] | Activity [3] | Activity [4] | Activity [5] | Activity [6] | Activity [7] | Activity [8] | Activity [9] | Activity [10] | Activity [11] | Activity [12] | Activity [13]
O=c1[nH]c2ccccc2o1 [BENZOXAZOLINONE] | 14% | 118% | 75% | 116% | 111% | 125% |  |  |  |  |  |  | 
O=C1C(O)Oc2ccccc2N1O (stereo unspecified) |  |  |  | 72% | 6% |  | 40% | 59% | 82% | 0% | 0% | Toxic | 97%
O=C1C(O[C@@H]2O[C@H](CO)[C@@H](O)[C@H](O)[C@H]2O)Oc2ccccc2N1O (stereo partly specified) | 89% |  |  |  |  |  |  |  |  |  |  |  | 
